Marks after values point to notes of the source that are not given here.
Target: T1, Human-Pankreas-α-Amylase (HPA) (Homo sapiens, UniProt P04746)
T1 sequence (P04746 16-511): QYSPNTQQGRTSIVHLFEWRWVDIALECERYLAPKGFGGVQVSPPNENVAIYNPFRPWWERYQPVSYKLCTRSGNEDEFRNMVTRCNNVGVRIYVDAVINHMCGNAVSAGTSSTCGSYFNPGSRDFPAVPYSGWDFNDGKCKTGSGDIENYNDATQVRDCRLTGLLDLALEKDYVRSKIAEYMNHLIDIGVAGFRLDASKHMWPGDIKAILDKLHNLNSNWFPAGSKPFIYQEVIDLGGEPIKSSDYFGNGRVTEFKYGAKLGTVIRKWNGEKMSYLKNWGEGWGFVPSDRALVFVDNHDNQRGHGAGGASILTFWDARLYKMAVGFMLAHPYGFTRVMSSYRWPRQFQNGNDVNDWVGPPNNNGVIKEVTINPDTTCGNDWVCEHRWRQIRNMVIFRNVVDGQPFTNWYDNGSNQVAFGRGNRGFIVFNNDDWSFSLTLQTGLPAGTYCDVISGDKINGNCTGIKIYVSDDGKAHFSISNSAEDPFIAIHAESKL
Test: direct α-amylase determination with synthetic substrates, without auxiliary enzymes (absorbance change per minute)
Format: biochemical
Conditions: for 400 mMol/l KSCN HPA [ΔE/min]: activator 400 mMol/l KSCN, read at the wavelength given per substrate (645 or 578 nm); for 400 mmol/l KSCN HPA relativer Wert [ΔE/min]: relative value (Beispiel 1 = 1)
Text: Es wurde mit den in der folgenden Tabelle und in Fig. 1 aufgeführten Substraten, die Amylaseaktivität von Human-Pankreas-α-Amylase (HPA) und Human-Speichel-α-Amylase (HSA) untersucht. Die folgenden Reagenzien wurden verwendet:
Substrat (wie in der Tabelle angegeben) 49,3 mMol/l
Reagenz 1 enthält gegebenenfalls noch Aktivator, wie in Tabelle angegeben, sowie - als Hemmstoffe für die Speichel-α-Amylase- von den Zellinien NCACC 84122003 (MAK I) und NCACC 84111301 (MAK II) produzierte Antikörper. Zur Durchführung der Bestimmung wird 1,00 ml Reagenz 1 mit 0,02 ml der Probe gemischt und auf 37°C temperiert. Anschließend wird 0,10 ml Reagenz 2 zugegeben, gemischt und nach 1,2 und 3 Minuten die Extinktion bei der jeweiligen Meßwellenlänge (s. Tabelle) abgelesen. Es wird der Mittelwert der Extinktionsdifferenz/Minute gebildet.
Die Endkonzentrationen im Testansatz betragen:
Als Probe wird Humanpankreas-Amylase (HPA) verwendet. Die Messung erfolgt bei 37°C bei der jeweils angegebenen Meßwellenlänge. Die Ergebnisse sind der Tabelle zu entnehmen. Tabelle
Verwendung der gemäß Beispiel 4 und Beispiel 5 hergestellten Substanzen als Substrate zur direkten α-Amylase-Bestimmung.
Es wird analog zu Beispiel 2 vorgegangen.

[1] = MES buffer pH 6,0, 37°C, substrate 4,44 mmol/l
[2] = measured at pH 8,0, 595 or 573 nm

Row | SMILES | 400 mMol/l KSCN HPA [ΔE/min] [1] | 400 mmol/l KSCN HPA relativer Wert [ΔE/min] [2] | further results
1 | O=C1C(Cl)=CC(=Nc2ccc(O[C@H]3O[C@H](CO)[C@@H](O[C@H]4O[C@H](CO)[C@@H](O[C@H]5O[C@H](CO)[C@@H](O)[C@H](O)[C@H]5O)[C@H](O)[C@H]4O)[C@H](O)[C@H]3O)c(Cl)c2)C=C1Cl [Beispiel 1, 2',2,6-Trichlor-indophenyl-α-maltotriosid] | 0,063 ΔE/min | – | Spaltung durch α-Amylase als direktes Substrat (in words, in the absence of auxiliary enzymes): hervorragend durch α-Amylase in Abwesenheit von Hilfsenzymen spaltbar; 400 mmol/l KSCN HPA relativer Wert [ΔE/min] (analogous to Beispiel 2 (pH 6,0, 37°C), 645 nm): 1 ΔE/min
2 | CC1=CC(=Nc2ccc(O[C@H]3O[C@H](CO)[C@@H](O[C@H]4O[C@H](CO)[C@@H](O[C@H]5O[C@H](CO)[C@@H](O)[C@H](O)[C@H]5O)[C@H](O)[C@H]4O)[C@H](O)[C@H]3O)cc2)C=C(C)C1=O [2,6-Dimethyl-indophenylα-maltotriosid, reference compound] | – | – | HPA [ΔE/min] (with 150 mmol/l NaN₃ instead of KSCN, MES buffer pH 6,0, 37°C, substrate 4,44 mmol/l, 578 nm): 0* ΔE/min
3 | O=C1C(Cl)=CC(=Nc2ccc(O[C@H]3O[C@H](CO)[C@@H](O[C@H]4O[C@H](CO)[C@@H](O[C@H]5O[C@H](CO)[C@@H](O)[C@H](O)[C@H]5O)[C@H](O)[C@H]4O)[C@H](O)[C@H]3O)cc2)C=C1Cl [2,6-Dichlor-indophenylα-maltotriosid, reference compound] | 0 ΔE/min | – | –

Now from value to compound, other results behind:

Row | 400 mMol/l KSCN HPA [ΔE/min] [1] | 400 mmol/l KSCN HPA relativer Wert [ΔE/min] [2] | SMILES | further results
4 | – | 0,27* ΔE/min | CC1=CC(=Nc2ccc(O[C@H]3O[C@H](CO)[C@@H](O[C@H]4O[C@H](CO)[C@@H](O[C@H]5O[C@H](CO)[C@@H](O)[C@H](O)[C@H]5O)[C@H](O)[C@H]4O)[C@H](O)[C@H]3O)c(Cl)c2)C=C(C)C1=O [Beispiel 5, 2'-Chlor-2,6-dimethyl-indophenyl-α-maltotriosid] | –
5 | – | 0,35* ΔE/min | CC1=CC(=Nc2ccc(O[C@H]3O[C@H](CO)[C@@H](O[C@H]4O[C@H](CO)[C@@H](O[C@H]5O[C@H](CO)[C@@H](O)[C@H](O)[C@H]5O)[C@H](O)[C@H]4O)[C@H](O)[C@H]3O)c(Cl)c2)C=CC1=O [Beispiel 4, 2'-Chlor-2-methyl-indophenyl-α-maltotriosid] | –

Reference: patent publication EP0510620A1, “Indophenol substituted oligomaltosides as substrates for alpha-amylase” (BOEHRINGER MANNHEIM GMBH, priority 1991, dated 1992)
